Test system: L. lactis MG1363
Test: Antimicrobial activity: growth inhibition in two-fold dilution series in microwell plate, OD600 after 6 hours
Type: cell-based, Lactococcus lactis
Details: supernatant treated with trypsin to cleave off leader, two-fold dilutions
Method: FIG. 2. Antimicrobial activity of a truncated nisin mutant containing HPQF (SEQ ID NO:7) in ring C. Lactococcus lactis containing a first plasmid encoding NisB, NisT and NisC and a second plasmid encoding […] (SEQ ID NO:44) was induced. The supernatant was treated with trypsin to cleave off the leader peptide. Series of two-fold dilutions were made in a microwell plate and the peptide's capacity to inhibit the growth of L. lactis MG1363 was tested by measuring OD 600 after six hours of incubation. ∘: control with PBS, ▪: truncated nisin mutant, ▾: supernatant of nisin A-producing L. lactis NZ9700.
The leader was cleaved off with trypsin and the antimicrobial activity was measured as follows: In a microwell plate, 200 μl of supernatant of nisin fusion strain and in other wells, 200 μl of control (positive, e.g., filtered sup of NZ9700 and negative) solutions was added to the wells of the first column. 100 μl medium was added to the remaining empty wells. For each row, 100 μl from the first column was added to the second and, after mixing, from the second to the third, etc., leading to two-fold dilution steps. 100 μl of sensitive strain. MG1363 was added to all wells at low density, OD600: 0.05-0.1. After 6 hours, OD600 was measured.

ITSISLCTPGCKTHPQFCNMKEQKLISEED [H14, P15, Q16, F17, ΔG18 mutant of nisin (1-22) with internal strep-tag, coupled to external myc-tag EQKLISEED]
antimicrobial activity (inhibition of growth of L. lactis MG1363) (FIG. 2): clearly has antimicrobial activity
antimicrobial activity (inhibition of growth of L. lactis MG1363) (FIG. 2, listed as truncated nisin mutant): still has activity
